According to PubChem BioAssay AID330 (DTP/NCI, 2004):
Several values for one entry are separate records, joined by “and”; a condition that tells them apart may be missing. Equal entries are not always repeated. Inconclusive results and toxic doses are left out. The calls were made as follows: active = survival T/C of 150% or more; inactive = T/C below 125% in these data.

Tested on: P388 leukemia ip, CD2F1 mice, survival T/C
Test: NCI In Vivo Anticancer Drug Screen. Data for tumor model P388 Leukemia (intraperitoneal) in CD2F1 (CDF1) mice
Details: endpoint: median survival time, higher = longer survival
In short: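 Mice carrying the transplanted tumor received test compound or vehicle. Survival was recorded in each group, and the value is the treated-group measurement divided by that of the vehicle-treated control group.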

[1] = dose: 50.0 mg/kg/injection, schedule: Q01DX005 (ip), vehicle: saline
[2] = dose: 100.0 mg/kg/injection, schedule: Q01DX005 (ip), vehicle: saline
[3] = dose: 60.0 mg/kg/injection, schedule: Q01DX005 (ip), vehicle: saline with Tween-80
[4] = dose: 120.0 mg/kg/injection, schedule: Q01DX005 (ip), vehicle: saline with Tween-80
[5] = dose: 240.0 mg/kg/injection, schedule: Q01DX005 (ip), vehicle: saline with Tween-80
[6] = dose: 50.0 mg/kg/injection, schedule: Q01DX005 (ip), vehicle: Klucel (hydroxypropylcellulose) (HPC)
[7] = dose: 100.0 mg/kg/injection, schedule: Q01DX005 (ip), vehicle: Klucel (hydroxypropylcellulose) (HPC)
[8] = dose: 200.0 mg/kg/injection, schedule: Q01DX005 (ip), vehicle: Klucel (hydroxypropylcellulose) (HPC)
[9] = dose: 100.0 mg/kg/injection, schedule: Q01DX009 (ip), vehicle: saline with Tween-80
[10] = dose: 200.0 mg/kg/injection, schedule: Q01DX009 (ip), vehicle: saline with Tween-80
[11] = dose: 50.0 mg/kg/injection, schedule: Q01DX009 (ip), vehicle: saline with Tween-80
[12] = dose: 12.5 mg/kg/injection, schedule: Q01DX009 (ip), vehicle: saline with Tween-80
[13] = dose: 25.0 mg/kg/injection, schedule: Q01DX009 (ip), vehicle: saline with Tween-80

Measured: T/C

Cc1cc(N=Nc2ccc(-c3ccc(N=Nc4ccc(O)c(C(=O)O)c4)cc3)cc2)c(N)c(N=Nc2ccc(C(=O)Nc3ccc(S(=O)(=O)O)cc3)cc2)c1N
inactive: dose: 6.25 mg/kg/injection, schedule: Q01DX005 (ip), vehicle: saline with Tween-80 100 % of control | dose: 12.5 mg/kg/injection, schedule: Q01DX005 (ip), vehicle: saline with Tween-80 101 % of control | dose: 25.0 mg/kg/injection, schedule: Q01DX005 (ip), vehicle: saline with Tween-80 101 % of control

COS(=O)(=O)N(C)c1nc(N(C)C)nc(N(C)C)n1
inactive: [1] 96 % of control | [2] 108 % of control

CC1(O)CCC(O)CC1CC[N+](C)(C)[O-] (stereo not drawn)
inactive: [1] 102 % of control | [2] 99 % of control | dose: 200.0 mg/kg/injection, schedule: Q01DX005 (ip), vehicle: saline 102 % of control

Cc1csc(NC(=S)NC(=O)c2ccccc2)n1
inactive: dose: 100.0 mg/kg/injection, schedule: Q04DX003 (ip), vehicle: saline with Tween-80 91 % of control | dose: 200.0 mg/kg/injection, schedule: Q04DX003 (ip), vehicle: saline with Tween-80 90 % of control

C1=C(c2ccccc2)Oc2ccccc2[P+]1(c1ccccc1)c1ccccc1
inactive: dose: 0.78 mg/kg/injection, schedule: Q01DX005 (ip), vehicle: Klucel (hydroxypropylcellulose) (HPC) 100 % of control | dose: 1.56 mg/kg/injection, schedule: Q01DX005 (ip), vehicle: Klucel (hydroxypropylcellulose) (HPC) 109 % of control | dose: 3.12 mg/kg/injection, schedule: Q01DX005 (ip), vehicle: Klucel (hydroxypropylcellulose) (HPC) 99 % of control

CC(C)c1cccc(C(C)C)c1NC(=O)OC1CCCCC1C (stereo not drawn)
inactive: [3] 94 % of control | [4] 90 % of control | [5] 98 % of control

O=C(NC(CO)C(=O)OCc1ccccc1)OCCc1ccccn1 (stereo not drawn)
inactive: dose: 60.0 mg/kg/injection, schedule: Q01DX005 (ip), vehicle: Klucel (hydroxypropylcellulose) (HPC) 100 % of control | dose: 120.0 mg/kg/injection, schedule: Q01DX005 (ip), vehicle: Klucel (hydroxypropylcellulose) (HPC) 96 % of control | dose: 240.0 mg/kg/injection, schedule: Q01DX005 (ip), vehicle: Klucel (hydroxypropylcellulose) (HPC) 96 % of control

Nc1ncnc2c1nc(Br)n2C1OC2COP(=O)(O)OC2C1O (stereo not drawn)
inactive: dose: 50.0 mg/kg/injection, schedule: Q01DX009 (ip), vehicle: suspension in saline 100 % of control | dose: 100.0 mg/kg/injection, schedule: Q01DX009 (ip), vehicle: suspension in saline 96 % of control | dose: 200.0 mg/kg/injection, schedule: Q01DX009 (ip), vehicle: suspension in saline 100 % of control

CCOC(=O)N1c2ccccc2C(c2ccccc2)=NC1(C#N)CC (stereo not drawn)
inactive: dose: 50.0 mg/kg/injection, schedule: Q01DX005 (ip), vehicle: saline with Tween-80 96 % of control | dose: 100.0 mg/kg/injection, schedule: Q01DX005 (ip), vehicle: saline with Tween-80 96 % of control | dose: 200.0 mg/kg/injection, schedule: Q01DX005 (ip), vehicle: saline with Tween-80 97 % of control

O=C(Nc1ccc(N=C(Nc2ccccc2)c2ccccc2)cc1)c1ccc(C(=O)Nc2ccc(N=C(Nc3ccccc3)c3ccccc3)cc2)cc1
inactive: dose: 25.0 mg/kg/injection, schedule: Q01DX005 (ip), vehicle: Klucel (hydroxypropylcellulose) (HPC) 98 % of control | [6] 91 % of control | [7] 91 % of control | [8] 86 % of control

CCOC(=O)c1csc(=S)[nH]1
inactive: [3] 107 % of control | [4] 101 % of control | [5] 100 % of control

O=c1[nH]c(=O)n(C2CC(O)C(CO)O2)cc1I (stereo not drawn)
inactive: dose: 40.0 mg/kg/injection, schedule: Q01DX009 (ip), vehicle: saline with Tween-80 101 % of control | dose: 80.0 mg/kg/injection, schedule: Q01DX009 (ip), vehicle: saline with Tween-80 105 % of control | [9] 118 % of control | dose: 100.0 mg/kg/injection, schedule: Q04DX003 (ip), vehicle: saline sonified 110 % of control | dose: 160.0 mg/kg/injection, schedule: Q01DX009 (ip), vehicle: saline with Tween-80 104 % of control | [10] 118 % of control | dose: 200.0 mg/kg/injection, schedule: Q04DX003 (ip), vehicle: saline sonified 120 % of control | dose: 320.0 mg/kg/injection, schedule: Q01DX009 (ip), vehicle: saline with Tween-80 122 % of control | dose: 400.0 mg/kg/injection, schedule: Q01DX009 (ip), vehicle: saline with Tween-80 118 % of control | dose: 400.0 mg/kg/injection, schedule: Q04DX003 (ip), vehicle: saline sonified 120 % of control

O=c1cc(C(F)(F)F)c2cc3c(cc2o1)NCCC3
inactive: [3] 89 % of control | [4] 86 % of control

COc1ccccc1N=NNc1ccc(S(=O)(=O)NC(C)=O)cc1
inactive: [6] 107 % of control | [7] 114 % of control

O=c1cccc(C(Cl)(Cl)Cl)o1
inactive: dose: 30.0 mg/kg/injection, schedule: Q01DX005 (ip), vehicle: saline + Tween-80 + alcohol 105 % of control | dose: 60.0 mg/kg/injection, schedule: Q01DX005 (ip), vehicle: saline + Tween-80 + alcohol 104 % of control and 105 % of control | dose: 120.0 mg/kg/injection, schedule: Q01DX005 (ip), vehicle: saline + Tween-80 + alcohol 105 % of control and 97 % of control

N#CCCNc1cc(O)c2c(c1O)C(=O)c1ccccc1C2=O
inactive: dose: 25.0 mg/kg/injection, schedule: Q01DX009 (ip), vehicle: other 88 % of control | dose: 50.0 mg/kg/injection, schedule: Q01DX009 (ip), vehicle: other 100 % of control | dose: 100.0 mg/kg/injection, schedule: Q01DX009 (ip), vehicle: other 95 % of control | dose: 200.0 mg/kg/injection, schedule: Q01DX009 (ip), vehicle: other 90 % of control

O=C(O)c1cc(Nc2nc(Cl)nc(Cl)n2)ccc1-c1c2ccc(=O)cc-2oc2cc(O)ccc12
inactive: [3] 115 % of control | [4] 119 % of control | [5] 117 % of control

CCOc1nc(N)nc(C)c1N=Nc1ccc(Br)cc1
inactive: dose: 60.0 mg/kg/injection, schedule: Q01DX005 (ip), vehicle: Klucel + Tween-80 100 % of control | dose: 120.0 mg/kg/injection, schedule: Q01DX005 (ip), vehicle: Klucel + Tween-80 104 % of control | dose: 240.0 mg/kg/injection, schedule: Q01DX005 (ip), vehicle: Klucel + Tween-80 99 % of control

CC(NC(=O)C(=O)c1c[nH]c2ccccc12)C(=O)O (stereo not drawn)
inactive: [3] 98 % of control | [4] 96 % of control | [5] 103 % of control

CSCCc1nc(C)oc1C
inactive: [11] 94 % of control | [9] 100 % of control | [10] 102 % of control

COc1ccc2nc(C)c3c(c2c1)C(=O)N(CCC[N+]1([O-])CC[N+]([O-])(CCCN2C(=O)c4c(c5cc(OC)ccc5[n+]([O-])c4C)C2=O)CC1)C3=O (stereo not drawn)
inactive: [3] 87 % of control | [4] 89 % of control | [5] 92 % of control

CNCCOC(=O)/C=C1\CC[C@H]2[C@@H]([C@@H](O)C(=O)[C@@H]3[C@]2(C)CC[C@H](O)[C@]3(C)C(=O)OC)[C@H]1C
inactive: dose: 3.0 mg/kg/injection, schedule: Q01DX009 (ip), vehicle: saline 100 % of control | dose: 6.0 mg/kg/injection, schedule: Q01DX009 (ip), vehicle: saline 97 % of control | dose: 12.0 mg/kg/injection, schedule: Q01DX009 (ip), vehicle: saline 109 % of control | dose: 12.5 mg/kg/injection, schedule: Q01DX009 (ip), vehicle: saline 114 % of control

C1=CSC(=C2SC=CS2)S1
inactive: dose: 6.25 mg/kg/injection, schedule: Q01DX009 (ip), vehicle: saline with Tween-80 106 % of control | [12] 106 % of control and 97 % of control | [13] 102 % of control and 110 % of control | [11] 100 % of control and 106 % of control and 114 % of control | [9] 108 % of control | [10] 100 % of control

S=C(Cl)Sc1ccc(-c2ccc(SC(=S)Cl)cc2)cc1
inactive: [6] 88 % of control | [7] 88 % of control | [8] 87 % of control

O=C(Nc1ccc(NC2=NCCN2)cc1)c1cccc(C(=O)Nc2ccc(NC3=NCCN3)cc2)c1
inactive: dose: 5.0 mg/kg/injection, schedule: Q01DX009 (ip), vehicle: saline with Tween-80 109 % of control | dose: 30.0 mg/kg/injection, schedule: Q01DX009 (ip), vehicle: saline with Tween-80 100 % of control

Cc1cc2nccc(/C=C/c3ccc(N(C)C)cc3)c2cc1C
inactive: [12] 102 % of control | [13] 110 % of control | [11] 92 % of control

O=C(O)/C=C(\Br)C(=O)O
inactive: dose: 100.0 mg/kg/injection, schedule: Q04DX002 (ip), vehicle: saline 95 % of control | dose: 200.0 mg/kg/injection, schedule: Q04DX002 (ip), vehicle: saline 90 % of control
